Test results reported in patent US9950026B2, “Methods for reducing oxidative damage” (Cornell Research Foundation, Inc., priority 2004, dated 2018).
Where a SMILES comes first, the peptide text is derived from it. [ ]: non-standard residue; d: D form. Dmt = Cc1cc(O)cc(C)c1C[C@H](N)C(=O)O

Assays:
N2A cells [1] = assay: Lipid peroxidation, HNE Michael adducts, after tBHP; format: cell-based, murine; conditions: t-BHP 1 mM, 3 h
Experimental: Lipid peroxidation was evaluated by measuring HNE Michael adducts. 4-HNE is one of the major aldehydic products of the peroxidation of membrane polyunsaturated fatty acids. N2A cells were seeded on glass bottom dish 1 day before t-BHP treatment (1 mM, 3 h, 37° C., 5% CO2) in the presence of absence of SS-31 (10^−8 to 10^−10 M). Cells were then washed twice with PBS and fixed 30 min with 4% paraformaldehyde in PBS at RT and then washed 3 times with PBS. Cells were then permeabilized, treated with rabbit-anti-HNE antibody followed by the secondary antibody (goat anti-rabbit IgG conjugated to biotin). Cells were mounted in Vectashield and imaged using a Zeiss fluorescence microscope using an excitation wavelength of 460±20 nm and a longpass filter of 505 nm for emission.

N2A cells [2] = assay: Nuclear condensation (Hoechst) after tBHP; format: cell-based, murine; conditions: 50 μM tBHP, 12 h
Experimental: FIG. 20A-20C. […] (A)(a-c; a′-c′) N2A cells were treated with 50 μM tBHP alone or with SS-31 for 12 h. Cells were stained with Hoechst 33342 for 20 min., fixed, and imaged by fluorescent microscopy. (a) Untreated cells show uniformly stained nuclei (a′). […] (c) Cells treated with tBHP and 1 nM SS-31 had less nuclear changes (c′). […] Apoptotic cells were counted using MetaMorph software. *P<0.01 compared to untreated cells; *P<0.01 compared to tBHP alone. […] SH-SY5Y cells were treated with 25 μM tBHP for 24 h. *P<0.01 compared to untreated cells; *P<0.01 compared to tBHP alone.
The morphological appearance of cells treated with tBHP was also consistent with apoptosis. N2A cells incubated with 50 μM tBHP for 12 h became rounded and shrunken (FIG. 20A, panel b). […] These nuclear changes were abolished by concurrent treatment with 1 nM SS-31 (FIG. 20A, panel c′).

[3] = system: C57BL/6 mice subjected to 30 min MCAO; assay: Redox status (cysteine, ascorbate, GSH) after transient MCAO; format: in vivo; conditions: 2 mg/kg i.p. upon reperfusion, 6 h
Experimental: FIG. 31A-31C. Effect of SS-31 peptide on ischemia-induced changes in cysteine (A) ascorbate (B), and GSH (C) levels, C57BL/6 mice were subjected to 30 min MCAO and treated with vehicle, SS-31 (2 mg/kg body weight) or SS-20 (2 mg/kg body eight) peptide immediately after reperfusion. Mice were sacrificed at 6 h postischemia. Values are expressed as percent increase (cysteine) or percent depletion (ascorbate and GSH) in ipsilateral side versus contralateral side. Error bars indicate SEM (n=4-6 animals per group).
To test the efficacy of SS-3 1 on redox status, cysteine, ascorbate and GSH levels were determined 6 h after 30 min transient middle cerebral artery occlusion (MCAO) in mice treated intraperitoneally (i.p.) with saline (vehicle), SS-31 (2 mg/kg) or SS-20 (2 mg/kg) upon reperfusion. Values in FIG. 31 are expressed as percent increase (cysteine) and percent depletion (ascorbate and GSH) in the ipsilateral side compared to the contralateral side. Absolute values were originally expressed as nmoles/mg protein as shown in FIG. 30 and converted to percent difference. The percent ipsilateral cysteine increase was similar among vehicle-, SS-31-, and SS-20-treated groups (FIG. 31A).

DBA/2 mice islets = assay: Islets isolated from donor mice pre-treated with SS-31 (TMRM, yield, Annexin V/PI flow cytometry); format: in vivo
Experimental: FIG. 33A-33B. SS peptides penetrate islet cells, co-localize with mitochondria and preserve islet mitochondrial membrane potential. (A) Islet cell uptake of SS-31. DBA/2 islet cells were incubated with 1 nM of tritium labeled SS-31 and 1 μM unlabeled SS-31 at 37° C. for 1 h. Following incubation, radioactivity was measured in the medium and in cell lysates and the radioactive counts in the medium were subtracted from radioactive counts in the cell lysate and normalized to protein content. In four consecutive experiments, the mean±(SE) [^3H]SS-31 uptake was 70.2+/31 10.3 pmol/mg, of proteins (B)(i-iv) SS-31 preserves islet mitochondrial potential. DBA/2 mice were treated with SS-31 (3 mg/kg s.c. BID) or vehicle control 24 hours prior to pancreas harvest for islet isolation. SS-31 treated groups had 1 nM SS-31 added to the islet isolation reagents. Following isolation, TMRM uptake was evaluated using confocal laser scanning microscopy.
FIG. 34A-34D. SS-31 reduces islet cell apoptosis. DBA/2 mice were pre-treated (24 and 12-hours hours prior to pancreas harvest and islet isolation) with SS-31 (3 mg/kg, s.c., BID) or vehicle control. SS-31 (1 nM was added to reagents used for the isolation of islets from SS-31-treated mice. The islets were dissociated in to single cells with trypsin/EDTA and were stained with Annexin V-FITC (AnV) and propidium iodide (PI) and analyzed with the use of dual parameter low cytometry. (A) Percentage of cell undergoing early apoptosis (AnV+cells); P=0.03. (B) Percentage of cells undergoing late apoptosis/early necrosis (AnV+/PI+cells); P=0.03. (C) Percentage of necrotic cells (PI+cells); P=1.0 (D) Percentage of viable cells (AnV-/PI-cells); P=0.03. Data from individual pancreatic islet isolations and mean±SE are shown, N=number of separate islet isolations. Two-tailed P-values were calculated using Mann-Whitney t-test.
Mitochondrial depolarization and the release of cytochrome c into the cytoplasm are critical antecedent events to cell death. TMRM, a fluorescent cationic indicator is taken up into mitochondria in a potential dependent manner.
To investigate whether the SS-31 optimizes islet isolation and results in increased islet yield, islet donor mice were pre-treated with SS-31.

In the case of `Cc1cc(O)cc(C)c1C[C@H](NC(=O)[C@H](N)CCCNC(=N)N)C(=O)N[C@@H](CCCCN)C(=O)N[C@@H](Cc1ccccc1)C(N)=O` [SS-31, D-Arg-2′6′-Dmt-Lys-Phe-NH2] (H-[dR][Dmt]KF-NH2; N-terminus assumed), the “lipid peroxidation (HNE adducts)” value (N2A cells [1]) was “inhibited lipid peroxidation”, the “number of apoptotic cells” value (N2A cells [2]) was “dose-dependently reduced” and the “nuclear changes (fragmentation and condensation)” value (N2A cells [2]; 1 nM SS-31) was “abolished”. For the same compound, the “ischemia-induced GSH depletion in the cortex” value [3] was “significantly attenuated”, the “percent ipsilateral cysteine increase” value [3] was “similar” and the “percent ipsilateral depletion of ascorbate” value [3] was “marginally but not significantly affected”. The “uptake of TMRM by islets (mitochondrial potential)” value (DBA/2 mice islets; SS-31 3 mg/kg s.c. BID to donor, 1 nM in isolation reagents) was “greater uptake of TMRM”, the “islet yield, mean±(SE)” value (DBA/2 mice islets; donor mice pre-treated with SS-31) was 291±60 islets per pancreas and the “islet cell viability (Annexin V-/PI- cells)” value (DBA/2 mice islets; donor mice treated with SS-31) was 62±3.5%. The “late apoptosis/early necrosis (Annexin V+/PI+ cells)” value (DBA/2 mice islets; donor mice treated with SS-31) was 12.6±1.8%, the “percentage of early apoptotic cells (Annexin V alone positive cells)” value (DBA/2 mice islets; donor mice treated with SS-31) was 5.5±1.0% and the “percentage of necrotic cells (PI+ cells)” value (DBA/2 mice islets; donor mice treated with SS-31) was “did not reduce”.
